Measured values: paper PMC6199744, “Development of Chemical Proteomics for the Folateome and Analysis of the Kinetoplastid Folateome” (ACS Infectious Diseases, 2018)
Read-outs that look alike come from different tables or passages of the source.

Assays:
Type in all cases: binding
[1] = biological target: T1, HeLa cell extract proteins (Homo sapiens, UniProt O75152)
T1 construct: endogenous in cells; host or cells: HeLa cell extract

[2] = biological target: T2, HeLa cell extract proteins (Homo sapiens, UniProt Q9HA64)
T2 construct: endogenous in cells; host or cells: HeLa cell extract
T2 sequence (Q9HA64 1-309): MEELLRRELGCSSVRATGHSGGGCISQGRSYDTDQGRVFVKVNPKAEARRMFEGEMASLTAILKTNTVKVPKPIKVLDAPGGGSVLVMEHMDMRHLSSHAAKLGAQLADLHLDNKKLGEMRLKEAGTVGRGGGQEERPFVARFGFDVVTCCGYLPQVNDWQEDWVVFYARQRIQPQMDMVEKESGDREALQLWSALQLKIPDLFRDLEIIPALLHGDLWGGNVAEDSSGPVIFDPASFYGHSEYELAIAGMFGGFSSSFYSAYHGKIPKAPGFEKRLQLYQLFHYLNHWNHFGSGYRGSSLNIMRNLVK

[3] = biological target: T3, HeLa cell extract proteins (Homo sapiens, UniProt O00303)
T3 construct: endogenous in cells; host or cells: HeLa cell extract

[4] = biological target: T4, HeLa cell extract proteins (Homo sapiens, UniProt Q9Y265)
T4 construct: endogenous in cells; host or cells: HeLa cell extract

[5] = biological target: T5, HeLa cell extract proteins (Homo sapiens, UniProt P23381)
T5 construct: endogenous in cells; host or cells: HeLa cell extract
T5 sequence (P23381 1-471): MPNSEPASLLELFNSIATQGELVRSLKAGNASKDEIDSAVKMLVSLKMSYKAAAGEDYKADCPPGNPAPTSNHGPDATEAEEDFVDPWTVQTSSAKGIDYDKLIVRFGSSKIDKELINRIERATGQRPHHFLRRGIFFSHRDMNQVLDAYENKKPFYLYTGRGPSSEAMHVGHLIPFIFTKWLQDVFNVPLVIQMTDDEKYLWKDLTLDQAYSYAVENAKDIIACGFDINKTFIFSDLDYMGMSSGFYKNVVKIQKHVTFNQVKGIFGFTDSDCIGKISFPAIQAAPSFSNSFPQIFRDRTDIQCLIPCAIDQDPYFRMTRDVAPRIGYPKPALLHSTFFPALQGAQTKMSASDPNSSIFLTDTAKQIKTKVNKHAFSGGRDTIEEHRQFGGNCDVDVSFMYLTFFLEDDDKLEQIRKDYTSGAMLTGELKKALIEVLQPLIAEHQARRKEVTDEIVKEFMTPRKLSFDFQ

[6] = biological target: T6, HeLa cell extract proteins (Homo sapiens, UniProt P53634)
T6 construct: endogenous in cells; host or cells: HeLa cell extract

[7] = biological target: T7, HeLa cell extract proteins (Homo sapiens, UniProt A3KMH1)
T7 construct: endogenous in cells; host or cells: HeLa cell extract

[8] = biological target: T8, HeLa cell extract proteins (Homo sapiens, UniProt Q9UI30)
T8 construct: endogenous in cells; host or cells: HeLa cell extract
T8 sequence (Q9UI30 1-125): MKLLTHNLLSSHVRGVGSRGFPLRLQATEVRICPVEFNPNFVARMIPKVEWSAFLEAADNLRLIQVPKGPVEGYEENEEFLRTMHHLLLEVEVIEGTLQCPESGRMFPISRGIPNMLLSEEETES

[9] = biological target: T9, HeLa cell extract proteins (Homo sapiens, UniProt P13798)
T9 construct: endogenous in cells; host or cells: HeLa cell extract
T9 sequence (P13798 1-732): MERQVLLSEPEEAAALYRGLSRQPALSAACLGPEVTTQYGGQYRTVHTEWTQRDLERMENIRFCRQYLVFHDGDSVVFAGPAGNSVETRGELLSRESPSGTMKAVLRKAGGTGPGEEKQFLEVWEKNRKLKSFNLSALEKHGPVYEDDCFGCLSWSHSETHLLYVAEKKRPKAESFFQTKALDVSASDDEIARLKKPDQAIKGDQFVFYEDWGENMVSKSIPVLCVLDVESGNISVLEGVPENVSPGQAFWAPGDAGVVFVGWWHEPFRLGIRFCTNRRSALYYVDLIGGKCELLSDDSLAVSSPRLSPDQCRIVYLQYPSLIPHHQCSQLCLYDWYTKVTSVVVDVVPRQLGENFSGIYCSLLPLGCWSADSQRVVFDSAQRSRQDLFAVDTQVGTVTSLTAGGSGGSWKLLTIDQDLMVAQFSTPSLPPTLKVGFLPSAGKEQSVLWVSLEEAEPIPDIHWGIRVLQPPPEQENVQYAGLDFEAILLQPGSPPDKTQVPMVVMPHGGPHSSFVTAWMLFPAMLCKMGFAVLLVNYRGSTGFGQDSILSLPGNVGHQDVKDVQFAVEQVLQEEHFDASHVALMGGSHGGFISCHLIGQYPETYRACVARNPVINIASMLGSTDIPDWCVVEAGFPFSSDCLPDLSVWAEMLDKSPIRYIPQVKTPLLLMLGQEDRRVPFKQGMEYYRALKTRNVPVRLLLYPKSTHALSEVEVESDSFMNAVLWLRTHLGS

[10] = biological target: T10, HeLa cell extract proteins (Homo sapiens, UniProt P28072)
T10 construct: endogenous in cells; host or cells: HeLa cell extract
T10 sequence (P28072 1-239): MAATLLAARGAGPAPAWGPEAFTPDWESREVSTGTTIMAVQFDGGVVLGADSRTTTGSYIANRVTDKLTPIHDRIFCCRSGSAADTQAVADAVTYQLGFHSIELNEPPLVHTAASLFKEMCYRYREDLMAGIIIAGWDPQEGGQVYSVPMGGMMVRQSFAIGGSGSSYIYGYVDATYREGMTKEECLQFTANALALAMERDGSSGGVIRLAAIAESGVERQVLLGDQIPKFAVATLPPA

[11] = HeLa, protein ZC3H11A (ZINC FINGER CCCH DOMAIN-CONTAINING PROTEIN 11A)
[12] = HeLa, protein FN3KRP (KETOSAMINE-3-KINASE)
[13] = HeLa, protein CTSC (DIPEPTIDYL-PEPTIDASE 1 PRECURSOR)
[14] = HeLa, protein APEH (ACYLAMINO-ACID-RELEASING ENZYME)

T7 sequence (A3KMH1 29-1905): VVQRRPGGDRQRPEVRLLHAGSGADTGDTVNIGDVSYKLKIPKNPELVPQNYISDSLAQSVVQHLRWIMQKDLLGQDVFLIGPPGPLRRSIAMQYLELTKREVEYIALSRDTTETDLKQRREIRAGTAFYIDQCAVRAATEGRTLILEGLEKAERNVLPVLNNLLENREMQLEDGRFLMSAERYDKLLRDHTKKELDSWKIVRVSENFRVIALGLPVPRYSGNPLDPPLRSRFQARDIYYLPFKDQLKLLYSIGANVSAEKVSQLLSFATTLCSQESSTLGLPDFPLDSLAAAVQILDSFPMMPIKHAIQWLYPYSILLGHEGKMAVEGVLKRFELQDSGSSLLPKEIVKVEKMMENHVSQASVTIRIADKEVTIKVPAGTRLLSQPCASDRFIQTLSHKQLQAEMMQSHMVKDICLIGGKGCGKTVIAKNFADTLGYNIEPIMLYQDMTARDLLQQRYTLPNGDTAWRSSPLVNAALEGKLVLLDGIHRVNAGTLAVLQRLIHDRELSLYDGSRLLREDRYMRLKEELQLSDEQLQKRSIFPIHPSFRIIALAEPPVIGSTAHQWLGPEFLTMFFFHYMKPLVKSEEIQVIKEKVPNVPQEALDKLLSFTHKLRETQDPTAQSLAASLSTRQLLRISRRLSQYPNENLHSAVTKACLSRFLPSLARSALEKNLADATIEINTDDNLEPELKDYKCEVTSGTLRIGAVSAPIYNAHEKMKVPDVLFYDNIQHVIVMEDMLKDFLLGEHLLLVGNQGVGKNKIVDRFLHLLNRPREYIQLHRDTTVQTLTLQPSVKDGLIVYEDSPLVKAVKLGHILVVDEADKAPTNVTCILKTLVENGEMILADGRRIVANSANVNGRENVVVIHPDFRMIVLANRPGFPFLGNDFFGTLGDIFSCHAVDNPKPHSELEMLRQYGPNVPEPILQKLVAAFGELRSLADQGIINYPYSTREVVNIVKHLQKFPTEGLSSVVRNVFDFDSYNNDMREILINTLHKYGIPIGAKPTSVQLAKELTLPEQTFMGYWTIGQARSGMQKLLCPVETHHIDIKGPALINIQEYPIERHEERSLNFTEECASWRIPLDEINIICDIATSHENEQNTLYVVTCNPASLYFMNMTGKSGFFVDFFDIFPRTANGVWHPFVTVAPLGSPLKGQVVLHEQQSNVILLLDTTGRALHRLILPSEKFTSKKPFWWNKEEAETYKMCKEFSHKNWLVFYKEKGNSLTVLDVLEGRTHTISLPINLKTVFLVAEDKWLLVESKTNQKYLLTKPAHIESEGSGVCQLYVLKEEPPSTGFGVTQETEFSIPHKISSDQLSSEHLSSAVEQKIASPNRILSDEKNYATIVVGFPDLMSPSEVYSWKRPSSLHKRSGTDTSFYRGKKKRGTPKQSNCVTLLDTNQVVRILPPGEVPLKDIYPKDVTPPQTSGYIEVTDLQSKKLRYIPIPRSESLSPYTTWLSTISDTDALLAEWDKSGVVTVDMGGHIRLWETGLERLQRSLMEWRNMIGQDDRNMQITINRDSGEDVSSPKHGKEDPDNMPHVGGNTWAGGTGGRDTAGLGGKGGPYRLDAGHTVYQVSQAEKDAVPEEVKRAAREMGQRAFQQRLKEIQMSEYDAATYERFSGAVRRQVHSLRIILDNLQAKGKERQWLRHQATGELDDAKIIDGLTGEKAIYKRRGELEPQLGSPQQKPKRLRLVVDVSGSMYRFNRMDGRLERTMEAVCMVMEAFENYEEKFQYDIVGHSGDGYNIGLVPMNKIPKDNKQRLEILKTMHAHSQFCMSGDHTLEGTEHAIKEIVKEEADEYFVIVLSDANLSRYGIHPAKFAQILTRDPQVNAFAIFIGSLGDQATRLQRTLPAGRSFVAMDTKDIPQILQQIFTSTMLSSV
T6 sequence (P53634 25-463): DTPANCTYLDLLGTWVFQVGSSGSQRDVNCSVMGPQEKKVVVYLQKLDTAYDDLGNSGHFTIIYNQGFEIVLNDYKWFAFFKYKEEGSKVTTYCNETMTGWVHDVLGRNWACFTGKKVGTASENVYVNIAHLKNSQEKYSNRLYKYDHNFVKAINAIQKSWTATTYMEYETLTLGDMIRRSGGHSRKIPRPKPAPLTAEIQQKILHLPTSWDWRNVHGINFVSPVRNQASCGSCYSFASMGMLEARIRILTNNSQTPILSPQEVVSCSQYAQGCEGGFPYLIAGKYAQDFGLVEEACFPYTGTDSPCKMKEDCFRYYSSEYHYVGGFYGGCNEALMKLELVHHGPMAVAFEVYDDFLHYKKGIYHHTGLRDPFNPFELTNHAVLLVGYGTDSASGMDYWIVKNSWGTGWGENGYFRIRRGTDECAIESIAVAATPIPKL
T4 sequence (Q9Y265 whole entry): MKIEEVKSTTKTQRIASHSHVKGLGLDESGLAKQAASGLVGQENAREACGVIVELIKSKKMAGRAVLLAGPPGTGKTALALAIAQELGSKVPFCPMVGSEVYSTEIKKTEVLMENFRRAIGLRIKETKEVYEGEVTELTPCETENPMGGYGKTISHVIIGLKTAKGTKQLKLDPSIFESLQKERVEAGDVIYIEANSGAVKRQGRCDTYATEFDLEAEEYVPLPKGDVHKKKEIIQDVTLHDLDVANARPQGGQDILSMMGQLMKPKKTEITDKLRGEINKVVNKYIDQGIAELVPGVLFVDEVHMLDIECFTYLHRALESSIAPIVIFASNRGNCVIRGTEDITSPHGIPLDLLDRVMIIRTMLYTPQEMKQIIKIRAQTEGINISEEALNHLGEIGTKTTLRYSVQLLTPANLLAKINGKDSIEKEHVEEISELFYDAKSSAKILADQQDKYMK
T3 sequence (O00303 whole entry): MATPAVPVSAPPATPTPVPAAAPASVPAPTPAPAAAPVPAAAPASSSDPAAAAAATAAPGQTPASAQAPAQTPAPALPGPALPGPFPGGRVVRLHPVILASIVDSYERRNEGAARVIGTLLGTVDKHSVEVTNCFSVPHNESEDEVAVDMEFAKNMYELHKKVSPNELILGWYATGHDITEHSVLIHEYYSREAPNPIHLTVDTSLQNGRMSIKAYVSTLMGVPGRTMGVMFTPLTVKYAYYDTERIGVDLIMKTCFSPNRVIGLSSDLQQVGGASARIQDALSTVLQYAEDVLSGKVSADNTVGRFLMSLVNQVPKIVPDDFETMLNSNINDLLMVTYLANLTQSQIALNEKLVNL
T1 sequence (O75152 whole entry): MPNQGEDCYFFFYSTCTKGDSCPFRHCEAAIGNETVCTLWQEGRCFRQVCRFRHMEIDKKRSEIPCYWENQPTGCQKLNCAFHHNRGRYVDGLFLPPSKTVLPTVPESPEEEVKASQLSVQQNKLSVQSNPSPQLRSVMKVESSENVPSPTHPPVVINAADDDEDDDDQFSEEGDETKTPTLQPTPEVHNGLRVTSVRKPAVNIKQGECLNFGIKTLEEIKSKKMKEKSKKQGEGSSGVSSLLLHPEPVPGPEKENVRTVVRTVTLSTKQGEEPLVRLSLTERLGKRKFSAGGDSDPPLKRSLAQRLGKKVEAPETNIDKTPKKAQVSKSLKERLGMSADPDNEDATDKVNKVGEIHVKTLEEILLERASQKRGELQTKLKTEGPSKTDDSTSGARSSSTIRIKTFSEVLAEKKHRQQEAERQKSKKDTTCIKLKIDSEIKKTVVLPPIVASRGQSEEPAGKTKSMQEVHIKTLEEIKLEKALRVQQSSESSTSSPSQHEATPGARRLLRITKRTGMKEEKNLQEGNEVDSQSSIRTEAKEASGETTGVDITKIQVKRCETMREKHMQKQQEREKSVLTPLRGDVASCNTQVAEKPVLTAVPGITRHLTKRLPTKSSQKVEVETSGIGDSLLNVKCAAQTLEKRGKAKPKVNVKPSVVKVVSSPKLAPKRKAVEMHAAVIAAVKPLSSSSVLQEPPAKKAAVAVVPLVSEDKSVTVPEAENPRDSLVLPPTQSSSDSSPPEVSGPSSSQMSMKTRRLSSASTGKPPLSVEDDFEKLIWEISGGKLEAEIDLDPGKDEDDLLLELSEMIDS

Compound	fold changes relative to vehicle control ([1]; captured protein ZC3H11A, HeLa)	fold changes relative to vehicle control ([2]; protein FN3KRP, HeLa)	fold changes relative to vehicle control ([3]; HeLa, protein EIF3F)	fold changes relative to vehicle control ([4]; protein RUVBL1, HeLa)	fold changes relative to vehicle control ([5]; protein WARS, HeLa)	fold changes relative to vehicle control ([6]; protein CTSC, HeLa)	fold changes relative to vehicle control ([7]; protein KIAA0564, HeLa)	fold changes relative to vehicle control ([8]; HeLa, protein HSPC152)	fold changes relative to vehicle control ([9]; HeLa, protein APEH)	fold changes relative to vehicle control ([10]; protein PSMB6, HeLa)	fold changes relative to vehicle control [1, 11]	fold changes relative to vehicle control [2, 12]	fold changes relative to vehicle control ([3]; protein EIF3F, HeLa)	fold changes relative to vehicle control ([4]; HeLa, protein RUVBL1)	fold changes relative to vehicle control [6, 13]	fold changes relative to vehicle control ([7]; HeLa, protein KIAA0564)	fold changes relative to vehicle control [9, 14]	fold changes relative to vehicle control ([10]; HeLa, protein PSMB6)	further results
Nc1nc2cccc(-c3ccccc3)c2n1Cc1ccc(Cl)c(Cl)c1 [compound 3]	0.94	1.04	1.05	1.04	0.9	0.86	1.1	1.04	1.01	1.09									
Nc1nc2[nH]cc(CCc3ccc(C(=O)N[C@@H](CCC(=O)O)C(=O)O)cc3)c2c(=O)[nH]1 [PTX, pemetrexed]																			fold changes relative to vehicle control [1]: 0.96; fold changes relative to vehicle control [2]: 1.01; fold changes relative to vehicle control [3]: 0.92; fold changes relative to vehicle control [4]: 0.92; fold changes relative to vehicle control [5]: 1.02; fold changes relative to vehicle control [6]: 0.84; fold changes relative to vehicle control [7]: 0.99; fold changes relative to vehicle control [8]: 1.21; fold changes relative to vehicle control [9]: 0.96; fold changes relative to vehicle control [10]: 1.1
Nc1nc2c(c(=O)[nH]1)N(C=O)C(CNc1ccc(C(=O)N[C@@H](CCC(=O)O)C(=O)O)cc1)CN2 (stereo partly shown) [LEU, leucovorin]					0.95			1.17			1.06	1.08	0.95	1.06	1.03	1	1.08	1.01	
CCCCCCOc1cccc(Cc2cnc(N)nc2N)c1 [compound 2]	1.01	0.9	1.24	1.47	1.71	0.95	1.11	1.18	0.91	1.36									
NCCOCCOCC(=O)Nc1nc2ncc(CNc3ccc(C(=O)NC(CCC(=O)O)C(=O)O)cc3)nc2c(=O)[nH]1 (stereo not shown) [compound 6]					1.19			1.36			0.92	0.85	0.96	1.07	0.82	1.1	0.91	1.29	
CCCCCCOc1ccc(Cc2cnc(N)nc2N)cc1 [compound 1]	0.95	1	0.93	1.32	0.96	0.89	0.99	0.96	0.96	1.31									
NCCCNc1ccc(C(=O)NC(CCC(=O)O)C(=O)O)cc1 (stereo not shown) [compound 7]					0.98			1.29			1.01	1.07	1.01	1.2	0.97	1.09	1	1.02	
